Measured values published in patent US20120122870A1, “Treatment Of Ischemia-Reperfusion Injury” (MUSC FOUNDATION FOR RESEARCH DEVELOPMENT, priority 2009, published 2012).
pIC50: −log10 of the molar value.

Key:
recombinant human SK = target: T1, recombinant human SK (Homo sapiens, UniProt Q9NYA1); assay: Recombinant human SK activity assay ([3H]sphingosine to [3H]S1P); type: biochemical; settings: Human SK incubated with 6 μg/mL of compound; percentage of SK activity inhibited
T1 construct: GST (glutathione-S-transferase) (N); made in house; host or cells: bacteria (pGEX bacterial expression vector)
Protocol: SK activity is measured by incubation of the recombinant SK with [^3H]sphingosine and 1 mM ATP under defined conditions, followed by extraction of the assay mixture with chloroform:methanol under basic conditions. […] Radioactivity in aliquots of the aqueous phase is then quantified as a measure of [^3H]S1P formation.
(§1) Human SK was incubated with 6 μg/mL of the indicated compounds, and then assayed for activity as described above. Values in the column labeled “Recombinant SK (% inhibition)” represent the percentage of SK activity that was inhibited. MDA-MB-231 cells were incubated with 20 μg/mL of the indicated compounds and then assayed for endogenous SK activity as indicated above. Values in the column labeled “Cellular S1P (% inhibition)” represent the percentage of S1P production that was inhibited. Additionally, MDA-MB-231 cells were treated with varying concentration of certain compounds and the amount of S1P produced by the cells was determined. Values in the column labeled “Cellular S1P IC50 (μM)” represent the concentration of compound required to inhibit the production of S1P by 50%. ND=not determined.

[1] = tested on: endogenous SK activity in MDA-MB-231 cells; assay: Cellular S1P production (endogenous SK activity) in MDA-MB-231 cells; type: cell-based; settings: Homo sapiens; for inhibition at 20 µg/mL: MDA-MB-231, MDA-MB-231 cells incubated with 20 μg/mL of compound, percentage of S1P production inhibited; for pIC50: MDA-MB-231 cells, varying concentrations, concentration inhibiting S1P production by 50%
Protocol: as §1

T1 sequence (Q9NYA1 whole entry): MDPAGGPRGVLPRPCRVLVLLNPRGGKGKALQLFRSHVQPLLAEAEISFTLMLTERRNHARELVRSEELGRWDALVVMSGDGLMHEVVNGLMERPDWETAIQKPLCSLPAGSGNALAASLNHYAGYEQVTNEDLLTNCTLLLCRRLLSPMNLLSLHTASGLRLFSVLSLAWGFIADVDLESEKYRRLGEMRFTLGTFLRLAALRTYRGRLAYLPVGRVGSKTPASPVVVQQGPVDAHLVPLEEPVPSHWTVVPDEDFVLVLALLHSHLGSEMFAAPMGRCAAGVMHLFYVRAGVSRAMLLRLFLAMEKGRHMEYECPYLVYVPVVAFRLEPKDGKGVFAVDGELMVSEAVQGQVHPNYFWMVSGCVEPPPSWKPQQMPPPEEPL

| SMILES | inhibition at 6 µg/mL (recombinant human SK) | inhibition at 20 µg/mL [1] | pIC50 [1] | Recombinant SK (% inhibition) (recombinant human SK) |
| --- | --- | --- | --- | --- |
| CC(C)NC(=O)C12CC3CC(C1)CC(c1ccc(Cl)cc1)(C3)C2 [A1, 3-(4-Chloro-phenyl)-adamantane-1-carboxylic acid isopropylamide] | 38% | 0% |  |  |
| O=C(Nc1ccccc1)C12CC3CC(C1)CC(c1ccc(Cl)cc1)(C3)C2 [A4, 3-(4-Chloro-phenyl)-adamantane-1-carboxylic acid phenylamide] | 44% | 14% |  |  |
| O=C(Nc1ccc(O)cc1)C12CC3CC(CC(C3)C1)C2 [A5, Adamantane-1-carboxylic acid (4-hydroxy-phenyl)-amide] | 100% | 17% |  |  |
| O=C(Nc1ccc(O)cc1)C12CC3CC(C1)CC(c1ccc(Cl)cc1)(C3)C2 [A6, 3-(4-Chloro-phenyl)-adamantane-1-carboxylic acid (4-hydroxy-phenyl)-amide] | 72% | 90% | 4.82 |  |
| CC(=O)Oc1ccc(NC(=O)C23CC4CC(C2)CC(c2ccc(Cl)cc2)(C4)C3)cc1 [A7, Acetic acid 4-{[3-(4-chloro-phenyl)-adamantane-1-carbonyl]-amino}-phenyl ester] | 100% | 96% |  |  |
| O=C(Nc1ccc(O)cc1O)C12CC3CC(C1)CC(c1ccc(Cl)cc1)(C3)C2 [A8, 3-(4-Chloro-phenyl)-adamantane-1-carboxylic acid (2,4-dihydroxy-phenyl)-amide] | 49% | 0% |  |  |
| O=C(Nc1cccc(CO)c1)C12CC3CC(C1)CC(c1ccc(Cl)cc1)(C3)C2 [A9, 3-(4-Chloro-phenyl)-adamantane-1-carboxylic acid (3-hydroxymethyl-phenyl)-amide] | 84% | 40% |  |  |
| N#CCc1ccc(NC(=O)C23CC4CC(CC(C4)C2)C3)cc1 [A10, Adamantane-1-carboxylic acid (4-cyanomethyl-phenyl)-amide] | 3% | 9% |  |  |
| N#CCc1ccc(NC(=O)C23CC4CC(C2)CC(c2ccc(Cl)cc2)(C4)C3)cc1 [A11, 3-(4-Chloro-phenyl)-adamantane-1-carboxylic acid (4-cyanomethyl-phenyl)-amide] | 17% | 0% |  |  |
| O=C(NCc1ccccc1)C12CC3CC(C1)CC(c1ccc(Cl)cc1)(C3)C2 [A12, 3-(4-Chloro-phenyl)-adamantane-1-carboxylic acid benzylamide] | 36% | 3% |  |  |
| CC(C)(C)c1ccc(CNC(=O)C23CC4CC(C2)CC(c2ccc(Cl)cc2)(C4)C3)cc1 [A13, 3-(4-Chloro-phenyl)-adamantane-1-carboxylic acid 4-tert-butyl-benzylamide] | 78% | 0% |  |  |
| CC(NC(=O)C12CC3CC(C1)CC(c1ccc(Cl)cc1)(C3)C2)c1ccc(Br)cc1 (centres unmarked) [A29, 3-(4-Chloro-phenyl)-adamantane-1-carboxylic acid [1-(4-bromo-phenyl)-ethyl]-amide] | 55% | 0% |  |  |
| O=C(NCc1ccc(O)c(O)c1)C12CC3CC(CC(C3)C1)C2 [A35, Adamantane-1-carboxylic acid 3,4-dihydroxy-benzylamide] | 87% | 0% |  |  |
| O=C(NCCc1ccccc1)C12CC3CC(C1)CC(c1ccc(Cl)cc1)(C3)C2 [A37, 3-(4-Chloro-phenyl)-adamantane-1-carboxylic acid phenethyl-amide] | 24% | 36% |  |  |
| O=C(NCCc1ccc(F)cc1)C12CC3CC(C1)CC(c1ccc(Cl)cc1)(C3)C2 [A38, 3-(4-Chloro-phenyl)-adamantane-1-carboxylic acid [2-(4-fluoro-phenyl)-ethyl]-amide] | 40% | 34% |  |  |
| O=C(NCCc1ccc(Br)cc1)C12CC3CC(C1)CC(c1ccc(Cl)cc1)(C3)C2 [A39, 3-(4-Chloro-phenyl)-adamantane-1-carboxylic acid [2-(4-bromo-phenyl)-ethyl]-amide] | 19% | 26% |  |  |
| O=C(NCCc1ccc(O)cc1)C12CC3CC(C1)CC(c1ccc(Cl)cc1)(C3)C2 [A40, 3-(4-Chloro-phenyl)-adamantane-1-carboxylic acid [2-(4-hydroxy-phenyl)-ethyl]-amide] | 100% | 52% |  |  |
| O=C(NCc1ccc(Oc2ccccc2)cc1)C12CC3CC(C1)CC(c1ccc(Cl)cc1)(C3)C2 [A41, 3-(4-Chloro-phenyl)-adamantane-1-carboxylic acid 4-phenoxy-benzylamide] |  | 23% |  | 67% |
| O=C(NCCc1ccc(O)c(O)c1)C12CC3CC(CC(C3)C1)C2 [A43, Adamantane-1-carboxylic acid [2-(3,4-dihydroxy-phenyl)-ethyl]-amide] | 0% | 0% |  |  |

| SMILES | inhibition at 6 µg/mL (recombinant human SK) | inhibition at 20 µg/mL [1] | pIC50 [1] | Recombinant SK (% inhibition) (recombinant human SK) |
| --- | --- | --- | --- | --- |
| O=C(NCCCc1ccccc1)C12CC3CC(C1)CC(c1ccc(Cl)cc1)(C3)C2 [A48, 3-(4-Chloro-phenyl)-adamantane-1-carboxylic acid (3-phenyl-propyl)-amide] | 36% | 14% |  |  |
| CN1CCC(NC(=O)C23CC4CC(CC(C4)C2)C3)CC1 [A50, Adamantane-1-carboxylic acid (1-methyl-piperidin-4-yl)-amide] | 0% | 44% |  |  |
| CN1CCC(NC(=O)C23CC4CC(C2)CC(c2ccc(Cl)cc2)(C4)C3)CC1 [A51, 3-(4-Chloro-phenyl)-adamantane-1-carboxylic acid (1-methyl-piperidin-4-yl)-amide] | 84% | 88% | 4.60 |  |
| CN1CCN(NC(=O)C23CC4CC(C2)CC(c2ccc(Cl)cc2)(C4)C3)CC1 [A52, 3-(4-Chloro-phenyl)-adamantane-1-carboxylic acid (4-methyl-piperazin-1-yl)-amide] | 54% | 61% |  |  |
| CN1CCCC1CCNC(=O)C12CC3CC(CC(C3)C1)C2 (centres unmarked) [A56, Adamantane-1-carboxylic acid [2-(1-methyl-pyrrolidin-2-yl)-ethyl]-amide] | 33% | 40% |  |  |
| CN1CCCC1CCNC(=O)C12CC3CC(C1)CC(c1ccc(Cl)cc1)(C3)C2 (centres unmarked) [A57, 3-(4-Chloro-phenyl)-adamantane-1-carboxylic acid [2-(1-methyl-pyrrolidin-2-yl)-ethyl]-amide] | 30% | 83% | 4.22 |  |
| O=C(NCCN1CCOCC1)C12CC3CC(C1)CC(c1ccc(Cl)cc1)(C3)C2 [A58, 3-(4-Chloro-phenyl)-adamantane-1-carboxylic acid (2-morpholin-4-yl-ethyl)-amide] | 67% | 55% |  |  |
| O=C(NCc1ccncc1)C12CC3CC(CC(C3)C1)C2 [A60, Adamantane-1-carboxylic acid (pyridin-4-ylmethyl)-amide] | 0% | 23% |  |  |
| O=C(NCc1ccncc1)C12CC3CC(C1)CC(c1ccc(F)cc1)(C3)C2 [A61, 3-(4-Fluoro-phenyl)-adamantane-1-carboxylic acid (pyridin-4-ylmethyl)-amide] | 58% | 24% |  |  |
| CC(Nc1ccccc1)C12CC3CC(CC(c4ccccc4)(C3)C1)C2 (centres unmarked) [A93, Phenyl-[1-(3-phenyl-adamantan-1-yl)-ethyl]-amine] | 70% |  |  |  |
| CC(NC1CCN(C)CC1)C12CC3CC(CC(C3)C1)C2 (centres unmarked) [A104, (1-Adamantan-1-yl-ethyl)-(1-methyl-piperidin-4-yl)-amine] | 0% |  |  |  |
| O=C(/C=C/c1ccc(Cl)cc1)C12CC3CC(C1)CC(c1ccc(Cl)cc1)(C3)C2 [A130, 3-(4-Chloro-phenyl)-1-[3-(4-chloro-phenyl)-adamantan-1-yl]-propenone] | 38% |  |  |  |
| N#Cc1ccc(/C=C/C(=O)C23CC4CC(C2)CC(c2ccc(Cl)cc2)(C4)C3)cc1 [A131, 4-{3-[3-(4-Chloro-phenyl)-adamantan-1-yl]-3-oxo-propenyl}-benzonitrile] | 41% |  |  |  |
| O=C(/C=C/c1ccc(O)cc1)C12CC3CC(C1)CC(c1ccc(Cl)cc1)(C3)C2 [A132, 1-[3-(4-Chloro-phenyl)-adamantan-1-yl]-3-(4-hydroxy-phenyl)-propenone] | 8% |  |  |  |
| O=C(/C=C/c1ccc2ccccc2c1)C12CC3CC(C1)CC(c1ccc(Cl)cc1)(C3)C2 [A133, 1-[3-(4-Chloro-phenyl)-adamantan-1-yl]-3-naphthalen-2-yl-propenone] | 36% |  |  |  |
| O=C(/C=C/c1ccc(Cl)nc1)C12CC3CC(C1)CC(c1ccc(Cl)cc1)(C3)C2 [A134, 1-[3-(4-Chloro-phenyl)-adamantan-1-yl]-3-(6-chloro-pyridin-3-yl)-propenone] | 52% |  |  |  |
| O=C(/C=C/c1cnc[nH]1)C12CC3CC(C1)CC(c1ccc(Cl)cc1)(C3)C2 [A135, 1-[3-(4-Chloro-phenyl)-adamantan-1-yl]-3-(1H-imidazol-4-yl)-propenone] | 64% |  |  |  |
| O=C(NCCCN1CCCC1)c1nc(-c2ccc(Cl)cc2)cs1 [B59, 4-(4-Chloro-phenyl)-thiazole-2-carboxylic acid (3-pyrrrolidin-1-yl-propyl)-amide] |  |  |  | 46% |
